Experiments:
[1] = cited from earlier work
[2] = Stabilization experiments with LECIGON, accelerated stability study at 25° C. for 12 days; format: physicochemical; settings: all combinations of Table 6
Experimental: HPLC—Agilent 1100 with DAD detector and cooled injector; OpenLAB CDS Chemstation C.01.05 (Agilent Technologies Inc., Santa Clara, Calif., U.S.A.).
As reference product, LECIGON™ having no stabilizing modification was used.
The following stabilizing modifications of the LECIGON™ composition were tested, the corresponding experimental compositions (“Exp.”) in Table 4 above being given within parentheses:
• a) 0.1% ascorbic acid (Exp. 5) • b) 0.5% citrate buffer (Exp. 12) • c) 0.5% citric acid (Exp. 4) 3. Removal of oxygen • nitrogen gas (Exp. 15) 4. Removal of metal ions • 0.05% EDTA (Exp. 3) 5. Combination of reduced pH and anti-oxidant (Exp. 13) 6. Combination of anti-oxidant and removal of oxygen • a) 0.1% ascorbic acid and 0.05% EDTA (Exp. 14) • b) 0.5% citric acid and 0.05% EDTA (Exp. 10) 7. Enclosure in an aluminium bag (Exp. 8).
The results are ranked with respect to reduction of hydrazine (DHPA, RRT 7.1). […] Levodopa was stable in all combinations and is therefore not included in the table. In the table, “Carb” is carbidopa, and “Ent” is entacapone.

[3] = cited from earlier work; remark: listed apart in the source
[4] = intravenous administration (3 mg/kg); cited from earlier work

Stability of levodopa in the gel combinations [2]	Structure (SMILES)	solubility in water [1]	metabolized to dopamine before levodopa reaches the brain ([3]; intake of levodopa alone)	bioavailability ([3]; levodopa via DUODOPA gel, same as in a tablet)	elimination half-life (t1/2β) [4]
–	C[C@@](Cc1ccc(O)c(O)c1)(NN)C(=O)O [Carbidopa, (−)-L-α-hydrazino-α-methyl-β-(3,4-dihydroxybenzene) propanoic acid monohydrate]	slightly soluble in water	–	–	–
stable	N[C@@H](Cc1ccc(O)c(O)c1)C(=O)O [Levodopa, (−)-L-α-amino-β-(3,4-dihydroxybenzene) propanoic acid]	slightly soluble in water	more than 90%	81-98%	–
–	Cc1ccc(C(=O)c2cc(O)c(O)c([N+](=O)[O-])c2)cc1 [Tolcapone, (3,4-Dihydroxy-5-nitrophenyl)(4-methylphenyl)methanone]	–	–	–	2.9 h

— patent US10555922B2, “Method of treating a dopamine related disorder in a subject by administering levodopa, in combination with a dopamine decarboxylase inhibitor and a catechol-o-methyltransferase inhibitor” (priority 2015, dated 2020)
